# Test results: patent publication US20100125059A1, “1-BIARYLAZETIDINONE DERIVATIVE” (Teijin Pharma Limited, priority 2007, published 2010)
# Where two headings read alike, the source gives them in different places.
# Test system: hamsters fed a high cholesterol diet
# Assay: Measurement of lipid lowering effect in hamsters fed a high cholesterol diet
# Assay type: in vivo, Male Golden Syrian hamsters
# Settings: Mesocricetus auratus, po, 168 h, gavage once daily, 7 days
# Experimental: Male Golden Syrian hamsters are divided into groups each consisting of 6 animals and fed a controlled high cholesterol diet (CE-2 containing 0.5% cholesterol; CLEA Japan, Inc.) for 28 days at most. From the start of feeding of the high cholesterol diet, the test compounds are administered by gavage once daily. For the administration, 0.2 mL of corn oil alone per 100 g (control group) or a solution (or suspension) of the test compound in corn oil at a dose of 0.01 to 10 mg/kg was given. At the same time, a group fed with a normal diet during the same study period is handled as a normal group. 4 hours after the last administration, whole blood is collected from the abdominal aorta under light anesthesia with ether and serum is separated from the blood. Further, livers are harvested, wet liver weights are measured, and part (about 0.5 g) of the harvested livers are extracted and weighed. 2-propanol in an amount 4 times the weight of the extracted livers are added, the resulted mixtures are homogenized, and the centrifuged supernatant are recovered and used as liver-derived samples.
# Serum and liver TC concentrations are determined by an enzyme method using L-type Wako CHO•H (Wako Pure Chemical Industries Ltd.) or Cholestest CHO (Daiichi Pure Chemicals Co., Ltd.). Serum TG concentrations are determined by an enzyme method using L-type Wako TG•H (Wako Pure Chemical Industries Ltd.) or Autosera S TG-N (Daiichi Pure Chemicals Co., Ltd.) and a free glycerine elimination method. LDL-C concentrations are determined by a direct method using L-type Wako LDL-C•M (Wako Pure Chemical Industries Ltd.) or Cholestest LDL (Daiichi Pure Chemicals Co., Ltd.). Human serum was commonly used as a sample for the calibration curve for determinations of serum and liver TC concentrations, serum TG concentration, and serum LDL-C concentration. The effect of the test compound is shown by a suppression rate (%) of an increase in serum TC concentration due to feeding of the high cholesterol diet, a serum TG lowering rate (%), a suppression rate (%) of an increase in serum LDL-C concentration due to feeding of the high cholesterol diet, and a suppression rate (%) of an increase in liver TC concentration due to feeding of the high cholesterol diet calculated in accordance with the following equations.
# In the Equation 2, A is the control group, B is the test compound group, and C is the normal group.
# In the Equation 3, A is the control group, B is the test compound group, and C is the normal group.
# In the Equation 4, A is the control group, B is the test compound group, and C is the normal group.
# In the Equation 5, A is the control group, and B is the test compound group.
# The following results were obtained from the study by this method on the effects of lowering serum TC, LDL-C, and TG, and liver TC in the hamsters fed with a high cholesterol diet which were given the test compounds for 7 days.
# The compounds in which pyridyl of compound of example 51 and 55 was exchanged for phenyl, were used as comparative compound 1 and 2, respectively. In the same method as Example 112, the suppression rate (%) of an increase in serum TC concentration of comparative compound 1 and 2 were calculated.
# [1] = read-out: serum LDL-C lowering effect (suppression rate of an increase in serum LDL-C concentration)
# [2] = read-out: serum TC lowering effect (suppression rate of an increase in serum TC concentration)
# [3] = read-out: liver TC lowering effect (suppression rate of an increase in liver TC concentration)
# [4] = read-out: serum TG lowering effect (serum TG lowering rate)
SMILES,inhibition in vivo at 0.01 mg/kg [1],inhibition in vivo at 0.01 mg/kg [2],inhibition in vivo at 0.1 mg/kg [1],inhibition in vivo at 0.1 mg/kg [2],further results
"O=C1[C@H](SC[C@H](O)c2ccc(Cl)cc2)[C@@H](c2ccc(O)cc2)N1c1ccc(-c2cncc(F)c2)cc1 [Example 70, (3R,4R)-3-[(2R)-2-(4-chlorophenyl)-2-hydroxyethylthio]-1-[4-(5-fluoropyridin-3-yl)phenyl]-4-(4-hydroxyphenyl)azetidin-2-one]",≥ 30%,≥ 30%,–,–,inhibition in vivo at 0.1 mg/kg [3]: ≥ 50%
"O=Cc1cncc(-c2ccc(N3C(=O)[C@H](SC[C@H](O)c4ccc(F)cc4)[C@H]3c3ccc(O)cc3)cc2)c1 [Example 71, 5-(4-{(3R,4R)-3-[(2R)-2-(4-fluorophenyl)-2-hydroxyethylthio]-4-(4-hydroxyphenyl)-2-oxoazetidinyl}phenyl)pyridine-3-carbaldehyde]",–,–,≥ 50%,≥ 50%,–
"O=C1[C@H](SC[C@H](O)c2ccc(Cl)cc2)[C@@H](c2ccc(O)cc2O)N1c1ccc(-c2cncc(F)c2)cc1 [Example 72, (3R,4R)-3-[(2R)-2-(4-chlorophenyl)-2-hydroxyethylthio]-4-(2,4-dihydroxyphenyl)-1-[4-(5-fluoropyridin-3-yl)phenyl]azetidin-2-one]",–,–,≥ 50%,≥ 50%,–
"O=C1[C@H](SC[C@H](O)c2ccc(F)cc2)[C@@H](c2ccc(O)cc2O)N1c1ccc(-c2cncc(F)c2)cc1 [Example 73, (3R,4R)-3-[(2R)-2-(4-fluorophenyl)-2-hydroxyethylthio]-4-(2,4-dihydroxyphenyl)-1-[4-(5-fluoropyridin-3-yl)phenyl]azetidin-2-one]",–,≥ 30%,≥ 50%,≥ 50%,–
"Cc1cc(O)ccc1[C@@H]1[C@@H](SC[C@H](O)c2ccc(F)cc2)C(=O)N1c1ccc(-c2cncc(F)c2)cc1 [Example 74, (3R,4R)-3-[(2R)-2-(4-fluorophenyl)-2-hydroxyethylthio]-1-[4-(5-fluoropyridin-3-yl)phenyl]-4-(4-hydroxy-2-methylphenyl)azetidin-2-one]",–,≥ 30%,≥ 50%,–,inhibition in vivo at 0.01 mg/kg [3]: ≥ 30%; inhibition in vivo at 0.1 mg/kg [3]: ≥ 50%
"O=C1[C@H](SC[C@H](O)c2ccc(Cl)cc2)[C@@H](c2ccc(O)cc2O)N1c1ccc(-c2cncc(C(F)(F)F)c2)cc1 [Example 75, (3R,4R)-3-[(2R)-2-(4-chlorophenyl)-2-hydroxyethylthio]-4-(2,4-dihydroxyphenyl)-1-[4-(5-trifluoromethylpyridin-3-yl)phenyl]azetidin-2-one]",≥ 30%,–,–,–,inhibition in vivo at 0.01 mg/kg [3]: ≥ 30%; inhibition in vivo at 0.1 mg/kg [3]: ≥ 50%; inhibition in vivo at 0.1 mg/kg [4]: ≥ 20%
"O=C1[C@H](SC[C@H](O)c2ccc(F)cc2)[C@@H](c2ccc(O)cc2O)N1c1ccc(-c2cncc(C(F)(F)F)c2)cc1 [Example 76, (3R,4R)-3-[(2R)-2-(4-fluorophenyl)-2-hydroxyethylthio]-4-(2,4-dihydroxyphenyl)-1-[4-(5-trifluoromethylpyridin-3-yl)phenyl]azetidin-2-one]",–,≥ 30%,–,–,–
"O=C1[C@H](SC[C@H](O)c2ccccc2F)[C@@H](c2ccc(O)cc2)N1c1ccc(-c2cccnc2)cc1 [Example 77, (3R,4R)-3-[(2R)-2-(2-fluorophenyl)-2-hydroxyethylthio]-4-(4-hydroxyphenyl)-1-[4-(pyridin-3-yl)phenyl]azetidin-2-one]",–,–,–,–,inhibition in vivo at 0.1 mg/kg [4]: ≥ 20%
"Cc1cc(O)ccc1[C@@H]1[C@@H](SC[C@H](O)c2ccc(F)cc2)C(=O)N1c1ccc(-c2cncc(C#N)c2)cc1 [Example 80, 5-(4-{(3R,4R)-3-[(2R)-2-(4-fluorophenyl)-2-hydroxyethylthio]-4-(4-hydroxy-2-methylphenyl)-2-oxoazetidinyl}phenyl)pyridine-3-carbonitrile]",–,–,≥ 50%,≥ 50%,–
"O=C1[C@H](SC[C@H](O)c2ccc(Cl)c(F)c2)[C@@H](c2ccc(O)cc2)N1c1ccc(-c2cncc(F)c2)cc1 [Example 82, (3R,4R)-3-[(2R)-2-(4-chloro-3-fluorophenyl)-2-hydroxyethylthio]-1-[4-(5-fluoropyridin-3-yl)phenyl]-4-(4-hydroxyphenyl)azetidin-2-one]",–,–,≥ 50%,≥ 50%,–
"COc1ccc([C@@H](O)CS[C@H]2C(=O)N(c3ccc(-c4cccnc4)cc3)[C@@H]2c2ccc(O)cc2)cc1 [Example 84, (3R,4R)-3-[(2R)-2-hydroxy-2-(4-methoxyphenyl)ethylthio]-4-(4-hydroxyphenyl)-1-[4-(pyridin-3-yl)phenyl]azetidin-2-one]",–,–,–,–,inhibition in vivo at 0.1 mg/kg [3]: ≥ 50%
"O=C1[C@H](SC[C@H](O)c2ccc(Cl)cc2O)[C@@H](c2ccc(O)cc2)N1c1ccc(-c2cccnc2)cc1 [Example 89, (3R,4R)-3-[(2R)-2-(4-chloro-2-hydroxyphenyl)-2-hydroxyethylthio]-4-(4-hydroxyphenyl)-1-[4-(pyridin-3-yl)phenyl]azetidin-2-one]",–,–,≥ 50%,≥ 50%,–
"O=C1[C@H](SC[C@H](O)c2ccc(F)cc2)[C@@H](c2ccc(O)cc2O)N1c1ccc(-c2cncc(Cl)c2)cc1 [Example 92, (3R,4R)-3-[(2R)-2-(4-fluorophenyl)-2-hydroxyethylthio]-4-(2,4-dihydroxyphenyl)-1-[4-(5-chloropyridin-3-yl)phenyl]azetidin-2-one]",≥ 30%,≥ 30%,–,–,inhibition in vivo at 0.1 mg/kg [4]: ≥ 20%
"Cc1cncc(-c2ccc(N3C(=O)[C@H](SC[C@H](O)c4ccc(F)cc4)[C@H]3c3ccc(O)cc3O)cc2)c1 [Example 93, (3R,4R)-3-[(2R)-2-(4-fluorophenyl)-2-hydroxyethylthio]-4-(2,4-dihydroxyphenyl)-1-[4-(5-methylpyridin-3-yl)phenyl]azetidin-2-one]",≥ 30%,≥ 30%,–,–,inhibition in vivo at 0.1 mg/kg [4]: ≥ 20%
"Cc1ccc(-c2ccc(N3C(=O)[C@H](SC[C@H](O)c4ccc(F)cc4)[C@H]3c3ccc(O)cc3O)cc2)cn1 [Example 95, (3R,4R)-3-[(2R)-2-(4-fluorophenyl)-2-hydroxyethylthio]-4-(2,4-dihydroxyphenyl)-1-[4-(6-methylpyridin-3-yl)phenyl]azetidin-2-one]",≥ 30%,≥ 30%,–,–,–
"O=C1[C@H](SC[C@H](O)c2ccc(Cl)cc2)[C@@H](c2ccc(O)cc2O)N1c1ccc(-c2cncc(Cl)c2)cc1 [Example 96, (3R,4R)-3-[(2R)-2-(4-chlorophenyl)-2-hydroxyethylthio]-4-(2,4-dihydroxyphenyl)-1-[4-(5-chloropyridin-3-yl)phenyl]azetidin-2-one]",–,–,–,–,inhibition in vivo at 0.01 mg/kg [3]: ≥ 30%
"Cc1cncc(-c2ccc(N3C(=O)[C@H](SC[C@H](O)c4ccc(Cl)cc4)[C@H]3c3ccc(O)cc3O)cc2)c1 [Example 97, (3R,4R)-3-[(2R)-2-(4-chlorophenyl)-2-hydroxyethylthio]-4-(2,4-dihydroxyphenyl)-1-[4-(5-methylpyridin-3-yl)phenyl]azetidin-2-one]",–,–,≥ 50%,≥ 50%,–
"Cc1ccc(-c2ccc(N3C(=O)[C@H](SC[C@H](O)c4ccc(Cl)cc4)[C@H]3c3ccc(O)cc3O)cc2)cn1 [Example 98, (3R,4R)-3-[(2R)-2-(4-chlorophenyl)-2-hydroxyethylthio]-4-(2,4-dihydroxyphenyl)-1-[4-(6-methylpyridin-3-yl)phenyl]azetidin-2-one]",≥ 30%,–,–,–,–
